This note sets out measurements from patent US20240173283A1, “PROPHYLACTIC AGENT OR THERAPEUTIC AGENT FOR SIDE EFFECTS OF ANTHRACYCLINE ANTICANCER AGENT” (Kyushu University, National University Corporation, priority 2021, published 2024).

The subject of series [1] is acrolein in myocardial tissues. The series can be described thus: Acrolein western blot of myocardial tissues, doxorubicin cardiomyopathy model. The note with it: day 14, FIG. 4. The text has this:
(§1) The obtained image was quantitatively analyzed in image J (NIH). GAPDH (Santa Cruz Biotechnology Inc., sc-32233) was used as an internal control.
(A western blot detects proteins with antibodies after separation by electrophoresis.)

Series [2] has as its system Hela cells (human uterine cervical cancer cells). Description: Cell death evaluation assay (Cell Counting Kit-F) in Hela cells. The note with it: 24 hours, FIG. 10B. It counts as cell-based. The procedure:
5′-ALA (1 mM) was added to Hela cells (human uterine cervical cancer cells), and doxorubicin (2 μM) was added thereto 1 hour later. […] The obtained results were normalized with those of the control group defined as 1, and presented as data.
On the technique in general: Tetrazolium dyes change colour on reduction, which living cells bring about.

Series [3] has as its system doxorubicin cardiomyopathy model. Description: Echocardiography in doxorubicin cardiomyopathy model. It counts as in vivo, mouse. The note with it: FIG. 3.
Series [4] concerns EL-4 cells (mouse malignant lymphoma cells). Description: Cell survival evaluation by Trypan Blue staining in EL-4 cells. It counts as cell-based. The note with it: 24 hours, FIG. 10A. The procedure:
5′-ALA (1 mM) was added to EL-4 cells (mouse malignant lymphoma cells), and doxorubicin (1 μM) was added thereto 1 hour later. The cells were collected 24 hours after doxorubicin addition, and dead cells were stained by Trypan Blue staining. The numbers of live cells and dead cells were counted in an automatic cell counter (Countess II FL, Thermo Fisher Scientific Inc.). Cell survival evaluation was conducted from the ratio (%) of the number of live cells to the total number of cells.

The test system of series [5] is Primary cardiomyocytes. The series can be described thus: Cell death evaluation assay (Cell Counting Kit-F) in doxorubicin-treated primary cardiomyocytes. It is filed as cell-based, rat. The note with it: FIG. 2. As for the experimental part: Primary cardiomyocytes were isolated by trypsin and collagenase treatment of the heart harvested from a neonatal rat, and inoculated onto a petri dish. After culture for several days, the culture medium was replaced with a serum-free medium (DMEM), and 2 μM (final concentration) doxorubicin was added from 24 hours later in the serum-free medium. Aminolevulinic acid (5′-ALA, 1 mM) or ferrostatin-1 (Fer-1, 50 μM) was added 1 hour before doxorubicin addition.

Series [6] relates to malondialdehyde (MDA) in myocardial tissues. Description: MDA (TBARS assay) in myocardial tissues, doxorubicin cardiomyopathy model. The note with it: day 14, FIG. 4.
Series [7] concerns Primary cardiomyocytes. Description: Cell death evaluation assay in primary cardiomyocytes with various anthracycline anticancer agents. It counts as cell-based, rat. The note with it: 5′-ALA 1 mM added 2 hours before DOX, DNR, THP, IDR or EPI (1 or 2 μM); 26 hours after addition; FIG. 5.
Experimental: Primary cardiomyocytes were isolated by trypsin and collagenase treatment of the heart harvested from a neonatal rat, and inoculated onto a petri dish. After culture for several days, the culture medium was replaced with a serum-free medium (DMEM), and doxorubicin (DOX; 1 or 2 μM), daunorubicin (DNR; 1 or 2 μM), pirarubicin (THP; 1 or 2 μM), idarubicin (IDR; 1 or 2 μM), or epirubicin (EPI; 1 or 2 μM) was added (final concentrations for all) from 24 hours later in the serum-free medium. Aminolevulinic acid (5′-ALA, 1 mM) was added 2 hours before doxorubicin addition. […] The obtained results were normalized with those of the control group defined as 1, and presented as data.
The test system of series [8] is Primary cardiomyocytes. Description: Malondialdehyde (MDA) measurement by TBARS assay in doxorubicin-treated primary cardiomyocytes. It counts as cell-based, rat. The note with it: FIG. 1. As for the experimental part: Primary cardiomyocytes were isolated by trypsin and collagenase treatment of the heart harvested from a neonatal rat, and inoculated onto a petri dish. After culture for several days, the culture medium was replaced with a serum-free medium (DMEM), and 2 μM (final concentration) doxorubicin was added from 24 hours later in the serum-free medium, and cardiomyocytes were lysed with a RIPA buffer and collected 24 hours after doxorubicin addition. Aminolevulinic acid (5′-ALA, 1 mM) or ferrostatin-1 (Fer-1, 50 µM) was added 1 hour before doxorubicin addition.

The subject of series [9] is iron in myocardial tissues. The series can be described thus: Mitochondrial total iron (ferrozine method) in mouse heart tissues. The note with it: day 14, FIG. 9A.
Series [10] has as its system mitochondrial heme in myocardial tissues. Description: Mitochondrial heme (QuantiChrom Heme Assay Kit) in mouse heart tissues. The note with it: day 14, FIG. 9B.
Series [11] relates to mitochondrial heme in rat primary cardiomyocytes. Description: Mitochondrial heme (QuantiChrom Heme Assay Kit) in cardiomyocytes. It is filed as cell-based. The note with it: FIG. 8C.
The test system of series [12] is mitochondrial iron in rat primary cardiomyocytes. The series can be described thus: Mito-FerroGreen fluorescent staining of mitochondrial iron in cardiomyocytes. It is filed as cell-based. The note with it: FIGS. 8A and 8B.
Experimental: 5′-ALA (1 mM) was added to isolated rat primary cardiomyocytes, and doxorubicin (2 M) was added from 1 hour later. The cells were washed once with PBS 24 hours after doxorubicin addition and cultured for 30 minutes in a medium supplemented with Mito-FerroGreen (5 µM) for fluorescent staining of mitochondrial iron. The cells were washed with PBS again and then observed under a fluorescence microscope (BZ-X800, Keyence Corp.) (FIG. 8A). The signal intensity of the obtained image was quantitatively analyzed in image J (NIH).
A further series concerns protoporphyrin IX (PpIX). The series can be described thus: Protoporphyrin IX measurement by mass spectrometer in cardiomyocytes. It is filed as cell-based, rat. The note with it: doxorubicin 2 μM, 24 hours; FIG. 7. As for the experimental part:
After doxorubicin (2 μM, 24 hours) addition to isolated rat primary cardiomyocytes, the cells were collected with PBS. 50% acetic acid and a dimethylformamide (DMF)/2-propanol (IPA) mixed solution were added to the collected sample, and the mixture was vigorously mixed by vortex. After centrifugation, a supernatant was recovered (supernatant 1), and a DMF/IPA mixed solution was added again to pellets, followed by centrifugation again. The supernatant thus obtained by centrifugation (supernatant 2) and the supernatant 1 were combined and used as protoporphyrin IX extracts. Acetonitrile was added to the extracts, and the mixture was deproteinized and then centrifuged at 20000 g for 20 minutes. Then, a supernatant was applied to a mass spectrometer (column: 1.8 UM, 2.1×100 mm; Waters, MA, USA, measurement equipment: Q Exactive Ultimate 3000; Thermo Fisher Scientific Inc.) to measure protoporphyrin IX (PPIX) in the cardiomyocytes.

The test system of series [13] is ALAS1. Description: Alas1 western blot in mouse heart tissues. The note with it: doxorubicin 6 mg/kg/dose, days 0, 2, 4; day 7; GAPDH internal control; FIG. 6B. It is filed as in vivo.
Source text: as §1

Series [14] relates to ALAS1. The series can be described thus: Alas1 western blot in rat primary cardiomyocytes. It is filed as cell-based. The note with it: doxorubicin 2 μM, 24 hours; β-Actin internal control; FIG. 6A. The text has this: The obtained image was quantitatively analyzed in image J (NIH). β-Actin (Santa Cruz Biotechnology Inc., sc-47778) was used as an internal control.
The mark [15] stands for this setting: 5′-ALA 300 mg/kg/day in drinking water from 3 days before doxorubicin.
The mark [16] stands for this setting: 5′-ALA oral 300 mg/kg/day in drinking water from 3 days before initial doxorubicin.
[17] abbreviates: 5′-ALA 1 mM added 1 hour before doxorubicin 2 μM, 24 hours after doxorubicin.
Setting [18] is: doxorubicin 6 mg/kg/dose, days 0, 2, 4.

As for `NCC(=O)CCC(=O)O` [5′-ALA, 5-aminolevulinic acid], the “lipid peroxide (acrolein) level in myocardial tissues” value in series [1] (setting [15]) was “significantly suppressed increase in lipid peroxide (acrolein and MDA) levels”. For the same molecule, in series [2] (5′-ALA 1 mM added 1 hour before doxorubicin 2 μM), the “attenuation of cell death-inducing effect of doxorubicin in Hela cells” value is “the effects were not attenuated”. Further, the “left ventricular contractility (left ventricular ejection fraction, LVEF)” value in series [3] (5′-ALA 300 mg/kg/day in drinking water from 3 days before doxorubicin (6 mg/kg/dose, days 0, 2, 4, tail vein), echocardiography 7 and 14 days) was “significantly improved reduction in left ventricular contractility”. Moreover, the “attenuation of cell death-inducing effect of doxorubicin in EL-4 cells” value in series [4] (5′-ALA 1 mM added 1 hour before doxorubicin 1 μM) was “the effects were not attenuated”. Also, the “cell death (ferroptosis) of cardiomyocytes” value (“cell death (ferroptosis)” for short) with Primary cardiomyocytes [5] (5′-ALA 1 mM added 1 hour before 2 μM doxorubicin, 24 hours after doxorubicin) is “suppressed the cell death (ferroptosis) of cardiomyocytes”. For the same molecule, in series [6] (setting [15]), the “lipid peroxide (MDA) level in myocardial tissues” value is “significantly suppressed increase in lipid peroxide (acrolein and MDA) levels”. Moreover, the “cell death of cardiomyocytes” value with Primary cardiomyocytes [7] is reported as “suppressed the cell death of cardiomyocytes in all the administration groups”. In the series on Primary cardiomyocytes [8] (5′-ALA 1 mM added 1 hour before 2 μM doxorubicin, collected 24 hours after doxorubicin), the “lipid peroxide level (MDA) in cardiomyocytes” value (“lipid peroxide level (MDA)” for short) is reported as “suppressed increase in lipid peroxide level”. For the same molecule, the “total amount of iron in heart mitochondria (myocardial tissues)” value in series [9] (setting [16]) is listed as “the iron excess state is normalized”. Besides, the “mitochondrial heme in myocardial tissues” value in [10] (setting [16]) is given as “the disorder is normalized”. Also, the “mitochondrial heme in cardiomyocytes” value in series [11] (setting [17]) was “the disorder is normalized”. In [12] (setting [17]), the “mitochondrial iron in cardiomyocytes (Mito-FerroGreen signal intensity)” value was “the iron excess state is normalized”.
With `CCOC(=O)c1ccc(NC2CCCCC2)c(N)c1` [Fer-1, ferrostatin-1], the “cell death (ferroptosis)” value in the series on Primary cardiomyocytes [5] (Fer-1 50 μM added 1 hour before 2 μM doxorubicin, 24 hours after doxorubicin) is given as “equivalent to the effect of Fer-1”. Besides, in the series with Primary cardiomyocytes [8] (Fer-1 50 µM added 1 hour before 2 μM doxorubicin, collected 24 hours after doxorubicin), the “lipid peroxide level (MDA)” value is “equivalent to the effect of Fer-1”.
Turning to `COc1cccc2c1C(=O)c1c(O)c3c(c(O)c1C2=O)C[C@@](O)(C(=O)CO)C[C@@H]3O[C@H]1C[C@H](N)[C@H](O)[C@H](C)O1` [doxorubicin], the “lipid peroxide (acrolein) level in myocardial tissues” value in [1] (setting [18]) is “increase in lipid peroxide (acrolein and MDA) levels”. For the same molecule, the “cell death-inducing effect in Hela cells” value in series [2] (doxorubicin 2 μM) was “a cell death-inducing effects, which are the drug efficacy of doxorubicin, were observed”. The “left ventricular contractility (left ventricular ejection fraction, LVEF)” value in series [3] (doxorubicin 6 mg/kg/dose, days 0, 2, 4, tail vein) is listed as “reduction in left ventricular contractility”. The “cell death-inducing effect in EL-4 cells (ratio of live cells to total cells)” value in series [4] (doxorubicin 1 μM) is given as “a cell death-inducing effects, which are the drug efficacy of doxorubicin, were observed”. Further, the “cell death (ferroptosis)” value in the series with Primary cardiomyocytes [5] (doxorubicin 2 μM, 24 hours) is on record as “cell death (ferroptosis) of cardiomyocytes induced by doxorubicin”. Also, the “level of protoporphyrin IX (PpIX) in cardiomyocytes” value with protoporphyrin IX (PpIX) is on record as “decreased”. The “lipid peroxide (MDA) level in myocardial tissues” value in series [6] (setting [18]) was “increase in lipid peroxide (acrolein and MDA) levels”. In the series with Primary cardiomyocytes [8] (doxorubicin 2 μM, 24 hours), the “lipid peroxide level (MDA)” value is given as “increase in lipid peroxide level in cardiomyocytes”. In addition, in [9] (setting [18]), the “total amount of iron in heart mitochondria (myocardial tissues)” value is on record as “an iron excess state is induced”. Besides, the “mitochondrial heme in myocardial tissues” value in series [10] (setting [18]) is on record as “heme synthesis disorder is induced”. Further, the “level of ALAS1 in myocardial tissues” value in the series with ALAS1 [13] is “decreased”. Besides, the “level of ALAS1 in cardiomyocytes” value in the series on ALAS1 [14] was “decreased”. Also, the “mitochondrial heme in cardiomyocytes” value in series [11] (doxorubicin 2 μM, 24 hours) is listed as “a heme synthesis disorder is induced”. Further, the “mitochondrial iron in cardiomyocytes (Mito-FerroGreen signal intensity)” value in [12] (doxorubicin 2 μM, 24 hours) is given as “an iron excess state occurs”.
